{
  "source": "patent US9101577B2",
  "about": "“Analgesic pharmaceutical composition for oral administration” (Warszawski Uniwersytet Medyczny, priority 2011, dated 2015)",
  "key": {"[1]": {"tested_on": "Male Wistar rats", "assay": "Acute activity after single p.o. administration, paw withdrawal test (Randall and Selitto), % of analgesia", "assay_type": "in vivo, rat", "conditions": "for analgesic activity on separate administration (oxycodone study): oxycodone 5 mg/kg; for analgesic activity on separate administration (tramadol study): tramadol 125 mg/kg"}, "[2]": {"tested_on": "Male Wistar rats", "assay": "Prolonged activity on repeated daily p.o. administration (7 or 10 days), paw withdrawal test (Randall and Selitto)", "assay_type": "in vivo, rat", "conditions": "for analgesic activity on separate administration, 7 days (oxycodone study): oxycodone 5 mg/kg; for pain threshold on separate administration, 10 days (tramadol study): tramadol 125 mg/kg"}, "[3]": {"conditions": "single administration, 15 mg magnesium ions/kg p.o. with dihydrocodeine 50 mg/kg p.o."}, "[4]": {"conditions": "single administration, 15 mg magnesium ions/kg p.o. with morphine 15 mg/kg p.o."}, "[5]": {"conditions": "single administration, 15 mg magnesium ions/kg p.o. with oxycodone 5 mg/kg p.o."}, "[6]": {"conditions": "single administration, 15 mg magnesium ions/kg p.o. with tramadol 125 mg/kg p.o."}, "[7]": {"conditions": "single separate administration p.o., magnesium salts 15 mg magnesium ions/kg"}, "[8]": {"conditions": "30 mg magnesium ions/kg p.o. with codeine 175 mg/kg p.o., 7 days"}, "[9]": {"conditions": "30 mg magnesium ions/kg p.o. with morphine 15 mg/kg p.o., 7 days"}, "[10]": {"conditions": "separate administration p.o., magnesium lactate micronized 15 or normal 30 mg magnesium ions/kg"}},
  "data": [
    {"smiles": "CC(O)C(=O)[O-].CC(O)C(=O)[O-].[Mg+2]", "note": "(stereo not shown) [normal magnesium lactate, Magnesium lactate]", "values": [
      {"measurement": "effect on analgesic activity of codeine", "setting": "[1]; single administration, 15 mg magnesium ions/kg p.o. with codeine 175 mg/kg p.o.", "result": "significantly enhanced the analgesic activity of codeine"},
      {"measurement": "activity on dihydrocodeine analgesia in comparison (to micronized form / to magnesium lactate)", "setting": "[1]; [3]", "result": "somewhat weaker"},
      {"measurement": "effect on dihydrocodeine analgesia", "setting": "[1]; [3]", "result": "significantly enhanced dihydrocodeine analgesia"},
      {"measurement": "time course of activity on dihydrocodeine analgesia", "setting": "[1]; [3]", "result": "gradually increased and reached a maximum between min 45 and 90 of the measurements and then became weaker by min 210"},
      {"measurement": "effect on morphine analgesia", "setting": "[1]; [4]", "result": "significantly enhanced morphine analgesia"},
      {"measurement": "enhancement of morphine analgesia lasted up to", "setting": "[1]; [4]", "result": 180, "unit": "min"},
      {"measurement": "time at which enhancement of morphine analgesia appeared", "setting": "[1]; [4]", "result": 60, "unit": "min"},
      {"measurement": "effect on oxycodone analgesia", "setting": "[1]; [5]", "result": "significantly enhanced oxycodone analgesia"},
      {"measurement": "time at which activity on oxycodone analgesia appeared", "setting": "[1]; [5]", "result": 5, "unit": "min"},
      {"measurement": "time course of activity on oxycodone analgesia", "setting": "[1]; [5]", "result": "weakened by min 15 and 30 and was maintained up to min 45"},
      {"measurement": "activity on tramadol analgesia in comparison (to micronized form / to magnesium chloride)", "setting": "[1]; [6]", "result": "weaker than the micronized form"},
      {"measurement": "effect on antinociceptive activity of tramadol", "setting": "[1]; [6]", "result": "increased antynociceptive activity of tramadol"},
      {"measurement": "analgesic activity on separate administration (codeine study)", "setting": "[1]; single separate administration p.o., codeine 175 mg/kg, magnesium salts 15 mg magnesium ions/kg", "result": "did not exhibit analgesic activity"},
      {"measurement": "analgesic activity / pain perception threshold on separate administration (dihydrocodeine study)", "setting": "[1]; single separate administration p.o., dihydrocodeine 50 mg/kg, magnesium salts 15 mg magnesium ions/kg", "result": "did not exhibit analgesic activity"},
      {"measurement": "analgesic activity / pain threshold when administered alone (morphine study)", "setting": "[1]; single separate administration p.o., morphine 15 mg/kg, magnesium salts 15 mg magnesium ions/kg", "result": "Neither morphine nor magnesium lactate and chloride in micronized or normal form administered alone showed analgesic activity"},
      {"measurement": "analgesic activity on separate administration (oxycodone study)", "setting": "[1]; [7]", "result": "showed no analgesic activity"},
      {"measurement": "analgesic activity on separate administration (tramadol study)", "setting": "[1]; [7]", "result": "did not exhibit analgesic activity"},
      {"measurement": "activity on codeine analgesia compared to micronized form", "setting": "[2]; [8]", "result": "significantly weaker"},
      {"measurement": "days on which activity on codeine analgesia appeared", "setting": "[2]; [8]", "result": "only appeared on days 6 and 7"},
      {"measurement": "activity on dihydrocodeine analgesia compared to micronized form", "setting": "[2]; 30 mg magnesium ions/kg p.o. with dihydrocodeine 50 mg/kg p.o., 7 days", "result": "significantly weaker in comparison to the micronized form"},
      {"measurement": "activity on morphine analgesia compared to micronized form", "setting": "[2]; [9]", "result": "much weaker"},
      {"measurement": "days on which activity on morphine analgesia appeared", "setting": "[2]; [9]", "result": "only on days 6 and 7"},
      {"measurement": "analgesic activity on separate administration, 7 days (codeine study)", "setting": "[2]; separate administration p.o., codeine 175 mg/kg, magnesium lactate micronized 15 or normal 30 mg magnesium ions/kg", "result": "did not exhibit analgesic activity"},
      {"measurement": "pain threshold on separate administration, 7 days (dihydrocodeine study)", "setting": "[2]; separate administration p.o., dihydrocodeine 50 mg/kg, magnesium lactate micronized 15 or normal 30 mg magnesium ions/kg", "result": "did not alter the pain threshold"},
      {"measurement": "pain threshold on separate administration, 7 days (morphine study)", "setting": "[2]; separate administration p.o., morphine 15 mg/kg, magnesium lactate micronized 15 or normal 30 mg magnesium ions/kg", "result": "did not alter the pain threshold"},
      {"measurement": "analgesic activity on separate administration, 7 days (oxycodone study)", "setting": "[2]; [10]", "result": "did not exhibit analgesic activity"},
      {"measurement": "pain threshold on separate administration, 10 days (tramadol study)", "setting": "[2]; [10]", "result": "did not alter the pain threshold"}
    ]},
    {"smiles": "COc1ccc2c3c1O[C@H]1C(=O)CC[C@@]4(O)[C@@H](C2)N(C)CC[C@]314", "note": "[oxycodone, reference compound]", "values": [
      {"measurement": "analgesic activity on separate administration (oxycodone study)", "setting": "[1]; [7]", "result": "showed no analgesic activity"},
      {"measurement": "analgesic activity on separate administration, 7 days (oxycodone study)", "setting": "[2]; [10]", "result": "did not exhibit analgesic activity"}
    ]},
    {"smiles": "COc1cccc(C2(O)CCCCC2CN(C)C)c1", "note": "(stereo not shown) [tramadol, reference compound]", "values": [
      {"measurement": "analgesic activity on separate administration (tramadol study)", "setting": "[1]; [7]", "result": "did not exhibit analgesic activity"},
      {"measurement": "pain threshold on separate administration, 10 days (tramadol study)", "setting": "[2]; [10]", "result": "insignificantly intensified the threshold for mechanical nociceptive stimuli from days 6 to 10"}
    ]}
  ]
}
